From patent US6929685B2, “Alkylamine derivatives as antifouling agents” (Bayer Atiengesellschaft, priority 2001, dated 2005)

Experiments:
Conditions in all cases: Dutch harbor, sea water
fouling organisms = assay: Raft panel static immersion test of antifouling paints: overall; set-up: key: good (G); satisfactory (S); failure (F)
Description: (§1) The prepared paints have been evaluated on can stability, adhesion and film defects. The antifouling performance has been tested by application of the paints on raft panels. At first the steel panels had been protected with a standard anticorrosive system for marine environments (300 μm in dft). The to be tested antifouling paint had been applied in 2 layers with a total dry film thickness between 200 and 300 μm. Finally the panels were subjected to a static immersion test on rafts at sea harbors in Holland. The paints were inspected for the presence of fouling (% of area covered with fouling organisms) and of film defects every two months. The tested paint formulations are represented in Table 1.
(§2) Further explanations to Table 1: • 1. Model coatings of type 1 (MC-1A/B/C) are for the evaluation of the algicidal properties of the claimed structures at three different representative weight-% next to 35% cuprous oxide. Good performing references are model coating MC-2 and MC-3 [35% cuprous oxide+3% Seanine (MC-2) or 35% cuprous oxide+3% Irgarol (MC-3)]. Base level references are “cuprous oxide only” formulations [cuprous oxide only (35% (MC4) and 50% level (MC-5)]. • 2. Model coatings of type 6 and 7 are for the evaluation of the activity of the claimed structures against “hard fouling” in combination with two different types of algicides: claimed structure (1/2/4%; MC-6-A/B/C)+3% Seanine or claimed structure (1/2/4%; MC-7-A/B/C)+3% Irgarol). Base level references are “algicide only” formulations with 3% Seanine (MC-8) or 3% Irgarol (MC-9).
(§3) 3. Model coatings of type 10 (MC-10A/B) evaluate the total spectrum of biocidal activity by using the claimed structure as only biocide at 2 levels (4 and 8 w %). Good performing references are “cuprous oxide only” formulations [cuprous oxide 35% (MC-4) and 50% (MC-5)]. As blank serves model coating 11 (MC-1 1) containing no biocide at all.
(§4) The claimed structures were tested at several levels of dosage with and without an algicide as co-biocide. The following formulations were used for comparison: formulations with cuprous oxide, formulations with cuprous oxide and commercial co-biocides, a blank and two formulations that only contained the co-biocide and finally a commercial tributyltin-releasing self polishing system.
(§5) An even better protection can be obtained by combining claimed structures with co-biocides like the algicides that are commonly used for antifoulings.

slime = assay: Raft panel static immersion test of antifouling paints: slime; set-up: key: G: Not present; Some light slime; F: Overall covered
Description: as §1, §2, §3, §4, §5

algae = assay: Raft panel static immersion test of antifouling paints: algae; set-up: key: G: Not present; Some light slime; F: Overall covered
Description: as §1, §2, §3, §4, §5

hard fouling = assay: Raft panel static immersion test of antifouling paints: hard fouling; set-up: key: G: Not present; Some light slime; F: Overall covered
Description: as §1, §2, §3, §4, §5

[1] = model coating 1A: 35% Cu2O + 1% of compound
[2] = model coating 1B: 35% Cu2O + 2% of compound
[3] = model coating 1C: 35% Cu2O + 3% of compound
[4] = model coating 6A: 1% of compound + 3% Seanine
[5] = model coating 6B: 2% of compound + 3% Seanine
[6] = model coating 6C: 4% of compound + 3% Seanine
[7] = model coating 7A: 1% of compound + 3% Irgarol
[8] = model coating 7B: 2% of compound + 3% Irgarol
[9] = model coating 7C: 4% of compound + 3% Irgarol
[10] = model coating 10A: 4% of compound as only biocide
[11] = model coating 10B: 8% of compound as only biocide

Row | SMILES | Performance (1 yr immersed) Overall (fouling organisms; [1]) | Performance (1 yr immersed) Overall (fouling organisms; [2]) | Performance (1 yr immersed) Overall (fouling organisms; [3]) | Performance (1 yr immersed) Overall (fouling organisms; [4]) | Performance (1 yr immersed) Overall (fouling organisms; [5]) | Performance (1 yr immersed) Overall (fouling organisms; [6]) | Performance (1 yr immersed) Overall (fouling organisms; [7]) | Performance (1 yr immersed) Overall (fouling organisms; [8]) | Performance (1 yr immersed) Overall (fouling organisms; [9]) | Performance (1 yr immersed) Overall (fouling organisms; [10]) | Performance (1 yr immersed) Overall (fouling organisms; [11]) | Performance (1 yr immersed) Slime (slime; [1]) | Performance (1 yr immersed) Slime (slime; [2]) | Performance (1 yr immersed) Slime (slime; [3]) | Performance (1 yr immersed) Slime (slime; [4]) | Performance (1 yr immersed) Slime (slime; [5]) | Performance (1 yr immersed) Slime (slime; [6]) | Performance (1 yr immersed) Slime (slime; [7]) | Performance (1 yr immersed) Slime (slime; [8]) | Performance (1 yr immersed) Slime (slime; [9]) | other results
1 | O=CNCCCCCCCCCCCBr [Compound 7, N-formyl-11-bromo-undecyl-1-amine] | S | S | G | F | S | G | F | S | S | F | S | S | S | G | S | S | G | S | S | S | Performance (1 yr immersed) Slime (slime; [10]): F; Performance (1 yr immersed) Slime (slime; [11]): S; Performance (1 yr immersed) Algae (algae; [2]): G; Performance (1 yr immersed) Algae (algae; [3]): G; Performance (1 yr immersed) Algae (algae; [4]): G; Performance (1 yr immersed) Algae (algae; [5]): G; Performance (1 yr immersed) Algae (algae; [6]): G; Performance (1 yr immersed) Algae (algae; [7]): G; Performance (1 yr immersed) Algae (algae; [8]): G; Performance (1 yr immersed) Algae (algae; [9]): G; Performance (1 yr immersed) Hard fouling (hard fouling; [1]): G; Performance (1 yr immersed) Hard fouling (hard fouling; [2]): G; Performance (1 yr immersed) Hard fouling (hard fouling; [3]): G; Performance (1 yr immersed) Hard fouling (hard fouling; [6]): G; Performance (1 yr immersed) Hard fouling (hard fouling; [11]): G
2 | O=CNCCCCCCCCCC(Br)CBr (stereo not shown) [Compound 3, N-formyl-10,11-dibromoundecylamine] | S | S | G | F | S | G | F | S | S | F | S | S | S | G | S | S | G | S | S | S | Performance (1 yr immersed) Slime (slime; [10]): F; Performance (1 yr immersed) Slime (slime; [11]): S; Performance (1 yr immersed) Algae (algae; [2]): G; Performance (1 yr immersed) Algae (algae; [3]): G; Performance (1 yr immersed) Algae (algae; [4]): G; Performance (1 yr immersed) Algae (algae; [5]): G; Performance (1 yr immersed) Algae (algae; [6]): G; Performance (1 yr immersed) Algae (algae; [7]): G; Performance (1 yr immersed) Algae (algae; [8]): G; Performance (1 yr immersed) Algae (algae; [9]): G; Performance (1 yr immersed) Hard fouling (hard fouling; [1]): G; Performance (1 yr immersed) Hard fouling (hard fouling; [2]): G; Performance (1 yr immersed) Hard fouling (hard fouling; [3]): G; Performance (1 yr immersed) Hard fouling (hard fouling; [6]): G; Performance (1 yr immersed) Hard fouling (hard fouling; [11]): G
